Experimental data from patent US8049012B2, “3-aza-spiro[5.5]undecane derivatives and their use as monoamine neurotransmitter re-uptake inhibitors” (Neurosearch A/S, priority 2005, dated 2011).

What was measured:
[1] = target: T1, reuptake of dopamine (DA) in synaptosomes (Rattus norvegicus, UniProt P23977); assay: Inhibition of 3H-DA reuptake in synaptosomes; assay type: biochemical; conditions: as described in WO 97/16451, read-out: DA-uptake IC50
T1 construct: in synaptosomes as described in WO 97/16451; from tissue
Experimental: (§1) A number of compounds were tested for their ability to inhibit the reuptake of the monoamine neurotransmitters dopamine (DA) noradrenaline (NA) and serotonine (5-HT) in synaptosomes as described in WO 97/16451.
(§2) The test values are given as IC50 (the concentration (μM) of the test substance which inhibits the specific binding of ^3H-DA, ^3H-NA, or ^3H-5-HT by 50%).

[2] = target: T2, reuptake of serotonine (5-HT) in synaptosomes (Rattus norvegicus, UniProt P31652); assay: Inhibition of 3H-5-HT reuptake in synaptosomes; assay type: biochemical; conditions: as described in WO 97/16451, read-out: 5-HT-uptake IC50
T2 construct: in synaptosomes as described in WO 97/16451; from tissue
Experimental: as §1, §2

T1 sequence (P23977 whole entry): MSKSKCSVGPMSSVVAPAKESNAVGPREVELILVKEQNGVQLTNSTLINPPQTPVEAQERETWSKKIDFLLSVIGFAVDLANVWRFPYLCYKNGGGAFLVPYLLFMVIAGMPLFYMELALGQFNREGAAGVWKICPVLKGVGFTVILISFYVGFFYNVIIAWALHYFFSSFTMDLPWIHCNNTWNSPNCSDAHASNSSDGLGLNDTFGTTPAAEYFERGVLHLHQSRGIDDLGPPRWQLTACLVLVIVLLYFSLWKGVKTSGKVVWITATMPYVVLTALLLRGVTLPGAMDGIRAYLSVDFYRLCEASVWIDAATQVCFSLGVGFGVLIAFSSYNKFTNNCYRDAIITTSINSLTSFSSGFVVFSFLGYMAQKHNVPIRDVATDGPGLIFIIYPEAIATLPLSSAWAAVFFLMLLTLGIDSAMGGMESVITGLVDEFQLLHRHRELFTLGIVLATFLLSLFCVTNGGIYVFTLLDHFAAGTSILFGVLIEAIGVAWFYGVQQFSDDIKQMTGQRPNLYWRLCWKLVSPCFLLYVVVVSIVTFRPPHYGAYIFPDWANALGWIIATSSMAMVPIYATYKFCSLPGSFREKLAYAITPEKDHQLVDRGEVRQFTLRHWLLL
T2 sequence (P31652 whole entry): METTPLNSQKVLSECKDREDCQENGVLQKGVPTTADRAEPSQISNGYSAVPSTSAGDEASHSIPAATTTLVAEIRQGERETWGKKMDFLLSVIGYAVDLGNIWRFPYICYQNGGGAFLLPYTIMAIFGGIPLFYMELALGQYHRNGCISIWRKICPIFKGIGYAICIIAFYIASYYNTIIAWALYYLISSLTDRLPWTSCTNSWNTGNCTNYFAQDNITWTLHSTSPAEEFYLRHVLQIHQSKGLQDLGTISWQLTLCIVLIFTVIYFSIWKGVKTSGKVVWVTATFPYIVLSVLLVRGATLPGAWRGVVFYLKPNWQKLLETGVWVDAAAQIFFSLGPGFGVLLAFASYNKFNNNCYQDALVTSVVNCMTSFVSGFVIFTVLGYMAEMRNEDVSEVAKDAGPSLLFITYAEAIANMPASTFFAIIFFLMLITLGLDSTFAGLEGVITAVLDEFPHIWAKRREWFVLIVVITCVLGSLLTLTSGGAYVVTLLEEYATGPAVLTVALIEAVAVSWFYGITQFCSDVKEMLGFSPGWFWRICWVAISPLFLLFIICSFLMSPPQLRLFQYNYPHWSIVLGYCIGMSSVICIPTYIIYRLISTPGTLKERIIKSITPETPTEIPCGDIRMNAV

IC50 [1] [nM] | IC50 [2] [nM] | melting point [°C] | SMILES
490 | 2.3 | 128 to 132 | Clc1ccc(NC2CCC3(CCNCC3)CC2)cc1Cl [2nd last compound of method A, (3-Aza-spiro[5.5]undec-9-yl)-(3,4-dichloro-phenyl)-amine]
1200 | 2 | 126 to 128 | O=c1ccc2ccc(OC3CCC4(CCNCC4)CC3)cc2o1 [3rd compound of method A, 7-(3-Aza-spiro[5.5]undec-9-yloxy)-chromen-2-one]
